Laboratory results: patent publication EP3560516A1, “COMBINATION THERAPY INCLUDING BETA-SITOSTEROL IN COMBINATION WITH AT LEAST ONE OF A BRAF INHIBITOR, A MEK INHIBITOR OR AN ERK INHIBITOR AND METHODS AND USE THEREOF” (Bergen Teknologioverføring AS, priority 2018, dated 2019)

Tests used:
[1] = system: MDA-MB-231; test: MTS viability assay; assay type: cell-based, human
Excerpt: (§1) • Figure 1: In vivo drug screening. (Figure left) Number of brain metastases at T1-weighted MRI with contrast (Student's t-test). (Figure right) Kaplan-Meier survival plot (Mantel-Cox log-rank test). There was no significant difference between vehicle- and memantine-treated mice. * P < 0.05; ** P < 0.01. All values are given as the mean ± s.e.m. • Figure 2: In vivo validation of β-sitosterol treatment-1. (Figure left) Number of brain metastases assessed by T1-weighted MRI with contrast (Student's t-test). The mean number of brain metastases in the vehicle group decreased slightly from seven to eight weeks as four mice with the greatest number of brain metastases were sacrificed between these observation points. (Figure right) Kaplan-Meier survival plot (Mantel-Cox log-rank test). The experiment was terminated at 100 days, and three mice in the β-sitosterol group were still alive and healthy. * P < 0.05; ** P < 0.01; **** P < 0.0001. All values are given as the mean ± s.e.m. • Figure 3: In vivo validation of β-sitosterol on H1_DL2 brain metastasis-2. (Figure left) Body weight from week zero to eight. […] (Figure right) Volume of brain metastases at MRI (T1-weighted with contrast). Total volume of brain metastases per animal was compared at group level. Student's t-test: n.s. P ≥ 0.05, * P < 0.05, ** P < 0.01, *** P < 0.001, **** P < 0.0001. All values are given as the mean ± s.e.m. • Figure 4: In vivo validation of β-sitosterol on PC14-PE6-Br2 brain metastases. Mice were injected intracardially with 5 x 10^5 PC14-PE6-Br2 cells. Test groups received daily i.p. injections of 0.1 mL vehicle (olive oil; n =4) or β-sitosterol 5 mg/kg (n = 6). (Figure left) Total volume of brain metastases at MRI at three weeks (T1-weighted with contrast). Total volume of brain metastases per animal was compared at group level. (Figure right) Kaplan-Meier survival plot (Mantel-Cox log-rank test: *** P < 0.001). All values are given as the mean ± s.e.m. • Figure 5: In vitro and in vivo effects on additional melanoma metastatic cell lines. (Figure left) Half maximal inhibitory concentration (IC50) values for β-sitosterol, PLX4720 and the combination thereof in Melmet 1, Melmet 5 and A375 cell lines (n = 3). (Figure right) Subcutaneous tumor volume ([width2 x length]/2) in mice injected with […] Melmet 5 cells. Mice were from 2 weeks onwards given daily i.p. injections of 0.1 mL vehicle (olive oil), 20 mg/kg β-sitosterol in olive oil, 25 mg/kg PLX4720 in 0.05% DMSO, or a combination of the two latter (n = 8 in each group). […] After 24 hours, the drugs were added to the wells, incubated for 72 hours, and then viability was assessed using an MTS assay. […] After 24 hours, the drugs were added to the wells, incubated for 72 hours, and then viability was assessed using an MTS assay. […]

[2] = system: H10 cells; test: MTS viability assay; assay type: cell-based, human
Excerpt: as §1

[3] = system: H1 cells; test: MTS viability assay; assay type: cell-based, human
Excerpt: as §1

[4] = system: brain metastases; test: in vivo drug screening in human-to-mouse brain metastasis model; conditions: compared with vehicle-treated mice; for survival: Kaplan-Meier
Excerpt: (§2) • Figure 1: In vivo drug screening. (Figure left) Number of brain metastases at T1-weighted MRI with contrast (Student's t-test). (Figure right) Kaplan-Meier survival plot (Mantel-Cox log-rank test). There was no significant difference between vehicle- and memantine-treated mice. * P < 0.05; ** P < 0.01. All values are given as the mean ± s.e.m. • Figure 2: In vivo validation of β-sitosterol treatment-1. (Figure left) Number of brain metastases assessed by T1-weighted MRI with contrast (Student's t-test). The mean number of brain metastases in the vehicle group decreased slightly from seven to eight weeks as four mice with the greatest number of brain metastases were sacrificed between these observation points. (Figure right) Kaplan-Meier survival plot (Mantel-Cox log-rank test). The experiment was terminated at 100 days, and three mice in the β-sitosterol group were still alive and healthy. * P < 0.05; ** P < 0.01; **** P < 0.0001. All values are given as the mean ± s.e.m. • Figure 3: In vivo validation of β-sitosterol on H1_DL2 brain metastasis-2. (Figure left) Body weight from week zero to eight. […] (Figure right) Volume of brain metastases at MRI (T1-weighted with contrast). Total volume of brain metastases per animal was compared at group level. Student's t-test: n.s. P ≥ 0.05, * P < 0.05, ** P < 0.01, *** P < 0.001, **** P < 0.0001. All values are given as the mean ± s.e.m. • Figure 4: In vivo validation of β-sitosterol on PC14-PE6-Br2 brain metastases. Mice were injected intracardially with 5 x 10^5 PC14-PE6-Br2 cells. Test groups received daily i.p. injections of 0.1 mL vehicle (olive oil; n =4) or β-sitosterol 5 mg/kg (n = 6). (Figure left) Total volume of brain metastases at MRI at three weeks (T1-weighted with contrast). Total volume of brain metastases per animal was compared at group level. (Figure right) Kaplan-Meier survival plot (Mantel-Cox log-rank test: *** P < 0.001). All values are given as the mean ± s.e.m. • Figure 5: In vitro and in vivo effects on additional melanoma metastatic cell lines. (Figure left) Half maximal inhibitory concentration (IC50) values for β-sitosterol, PLX4720 and the combination thereof in Melmet 1, Melmet 5 and A375 cell lines (n = 3). (Figure right) Subcutaneous tumor volume ([width2 x length]/2) in mice injected with […] Melmet 5 cells. Mice were from 2 weeks onwards given daily i.p. injections of 0.1 mL vehicle (olive oil), 20 mg/kg β-sitosterol in olive oil, 25 mg/kg PLX4720 in 0.05% DMSO, or a combination of the two latter (n = 8 in each group). Representative images of tumors at 44 days are shown in the right panel. Student's t-test: * P < 0.05, ** P < 0.01. Values are given as the mean ± s.e.m. • Figure 6: In vitro effects of other BRAF and MEK inhibitors on human melanoma brain metastatic cell lines. 5000 cells (human BRAF mutated melanoma brain metastatic cell lines H1, H9 or H10) were plated in each well of a 96 well dish. After 24 hours, the drugs were added to the wells, incubated for 72 hours, and then viability was assessed using an MTS assay. […] 5000 cells were plated in each well of a 96 well dish. After 24 hours, the drugs were added to the wells, incubated for 72 hours, and then viability was assessed using an MTS assay.
We next investigated the efficacy of thiostrepton, memantine, and β-sitosterol using a highly standardized human-to-mouse brain metastasis model (Sundstrøm T et al, Cancer Res 2013;73:2445-2456). Drug treatment was commenced one week after tumor cell injections.

[5] = system: four melanoma cell lines; test: monolayer viability and tumorsphere assays; assay type: cell-based; conditions: among top 10 candidate compounds from cMap
Excerpt: Based on RNA sequencing of tumors in brains, adrenals, bone and ovaries from mice, we defined a 108-gene brain metastasis signature using a comparative work-flow of independent analyses of gene expression profiles from brain versus other organ metastases in a human BRAF-mutant melanoma xenograft model. […] For further studies, we concentrated on the top 10 candidate anti-brain metastatic compounds. To test the efficacy of the candidate compounds, we performed monolayer viability and tumorsphere assays in four melanoma cell lines (Daphu I et al, Int J Mol Sci 2014;15:8773.8794, Netland IA et al, J Neurooncol 2016;129:57-66). IC50 values were generally lower in tumorspheres than in monolayers, and there was substantial variation in cell line sensitivity.

[6] = system: Melmet 5 cells; test: subcutaneous Melmet 5 melanoma model; assay type: in vivo, mice; conditions: daily i.p. from 2 weeks: 20 mg/kg β-sitosterol, 25 mg/kg PLX4720, or both
Excerpt: (§3) • Figure 1: In vivo drug screening. (Figure left) Number of brain metastases at T1-weighted MRI with contrast (Student's t-test). (Figure right) Kaplan-Meier survival plot (Mantel-Cox log-rank test). There was no significant difference between vehicle- and memantine-treated mice. * P < 0.05; ** P < 0.01. All values are given as the mean ± s.e.m. • Figure 2: In vivo validation of β-sitosterol treatment-1. (Figure left) Number of brain metastases assessed by T1-weighted MRI with contrast (Student's t-test). The mean number of brain metastases in the vehicle group decreased slightly from seven to eight weeks as four mice with the greatest number of brain metastases were sacrificed between these observation points. (Figure right) Kaplan-Meier survival plot (Mantel-Cox log-rank test). The experiment was terminated at 100 days, and three mice in the β-sitosterol group were still alive and healthy. * P < 0.05; ** P < 0.01; **** P < 0.0001. All values are given as the mean ± s.e.m. • Figure 3: In vivo validation of β-sitosterol on H1_DL2 brain metastasis-2. (Figure left) Body weight from week zero to eight. […] After 24 hours, the drugs were added to the wells, incubated for 72 hours, and then viability was assessed using an MTS assay. […] After 24 hours, the drugs were added to the wells, incubated for 72 hours, and then viability was assessed using an MTS assay. […]

[7] = system: H1_DL2 brain metastasis; test: in vivo validation of β-sitosterol treatment, treatment commenced before cell injection; set-up: species or system mice
Excerpt: as §2
To validate our β-sitosterol treatment findings, we carried out a new and more extensive in vivo study in which treatment commenced before cell injection.

[8] = system: PC14-PE6-Br2 brain metastases; test: in vivo validation on lung adenocarcinoma brain metastases; set-up: species or system mice; conditions: 5 mg/kg daily i.p.
Excerpt: • Figure 1: In vivo drug screening. (Figure left) Number of brain metastases at T1-weighted MRI with contrast (Student's t-test). (Figure right) Kaplan-Meier survival plot (Mantel-Cox log-rank test). There was no significant difference between vehicle- and memantine-treated mice. * P < 0.05; ** P < 0.01. All values are given as the mean ± s.e.m. • Figure 2: In vivo validation of β-sitosterol treatment-1. (Figure left) Number of brain metastases assessed by T1-weighted MRI with contrast (Student's t-test). The mean number of brain metastases in the vehicle group decreased slightly from seven to eight weeks as four mice with the greatest number of brain metastases were sacrificed between these observation points. (Figure right) Kaplan-Meier survival plot (Mantel-Cox log-rank test). The experiment was terminated at 100 days, and three mice in the β-sitosterol group were still alive and healthy. * P < 0.05; ** P < 0.01; **** P < 0.0001. All values are given as the mean ± s.e.m. • Figure 3: In vivo validation of β-sitosterol on H1_DL2 brain metastasis-2. (Figure left) Body weight from week zero to eight. […] After 24 hours, the drugs were added to the wells, incubated for 72 hours, and then viability was assessed using an MTS assay. […] After 24 hours, the drugs were added to the wells, incubated for 72 hours, and then viability was assessed using an MTS assay.

[9] = system: H9 cells; test: MTS viability assay; assay type: cell-based; conditions: Homo sapiens, H9, 72 h, read-out: cell viability
Excerpt: as §3

[10] = human, mda-mb-231 cells, 72 h, 35 µM
[11] = MRI, treatment commenced one week after tumor cell injections

Compound: CCCS(=O)(=O)Nc1ccc(F)c(C(=O)c2c[nH]c3ncc(-c4ccc(Cl)cc4)cc23)c1F [vemurafenib, reference compound]
- cell viability [1, 10]: ~73%
- cell viability ([2]; h10 cells, 72 h, 50 µM): around 25%

Compound: CC(=O)Nc1cccc(-n2c(=O)n(C3CC3)c(=O)c3c(Nc4ccc(I)cc4F)n(C)c(=O)c(C)c32)c1 [trametinib, reference compound]
- cell viability [1, 10]: around 44%
- cell viability ([3]; h1 cells, 72 h, 50 µM): ~60%

Compound: C=C(NC(=O)C(=C)NC(=O)c1csc(C2=N[C@@H]3c4csc(n4)[C@H]4NC(=O)c5csc(n5)[C@H]([C@](C)(O)[C@@H](C)O)NC(=O)[C@H]5CSC(=N5)/C(=C/C)NC(=O)[C@H]([C@@H](C)O)NC(=O)c5csc(n5)[C@]3(CC2)NC(=O)[C@H](C)NC(=O)C(=C)NC(=O)[C@H](C)NC(=O)[C@H]([C@@H](C)CC)N[C@@H]2C=Cc3c([C@H](C)O)cc(nc3[C@H]2O)C(=O)O[C@@H]4C)n1)C(N)=O [thiostrepton, reference compound]
- survival [4]: significantly shorter lifespan
- reducing viability and tumorsphere growth [5]: most potent

Compound: CCCS(=O)(=O)Nc1ccc(F)c(C(=O)c2c[nH]c3ncc(Cl)cc23)c1F [PLX4720, reference compound]
- subcutaneous tumor growth [6]: effective as monotherapies

Compound: CC[C@H](CC[C@@H](C)[C@H]1CC[C@H]2[C@@H]3CC=C4C[C@@H](O)CC[C@]4(C)[C@H]3CC[C@]12C)C(C)C [β-sitosterol]
- cell viability ([1]; 35uM beta-sitosterol, 0.5uM trametinib, 72 hours (Figure 7 left)): around 48%
- cell viability ([1]; 35uM beta-sitosterol, 5uM vemurafenib, 72 hours (Figure 7 right)): around 44%
- survival [4]: survived significantly longer
- number of brain metastases [4, 11]: significant reduction
- volume of brain metastases [4, 11]: significant reduction
- cell viability ([3]; 50uM beta-sitosterol, 5nM trametinib, 72 hours, compared with untreated cells): around 85%
- cell viability ([2]; 50uM beta-sitosterol, 5uM vemurafenib, 72 hours, compared to the untreated cells): around 80%
- reducing viability and tumorsphere growth [5]: most potent
- survival ([7]; Kaplan-Meier, compared with vehicle treatment, terminated at 100 days): significant survival benefit
- volumes of brain metastases ([7]; MRI T1-weighted with contrast, compared with vehicle group): significantly lower volumes
- number of brain metastases ([7]; T1-weighted MRI with contrast, compared with vehicle group): significantly fewer brain metastases
- mice healthy and tumor-free ([7]; at 100 days, evaluated by brain MRI and histology): three out of nine
- average body weight ([7]; at 100 days, three remaining mice, mean ± s.e.m.): 26.7 ± 0.6 grams
- body weight ([7]; week zero to eight, vehicle-treated mice lost weight from four weeks onwards): maintained a stable body weight
- survival ([8]; Kaplan-Meier): prolonged survival
- brain metastatic burden ([8]; MRI at three weeks, compared with vehicle): significant reduction
- viability at 50 µM [9]: 85%
- subcutaneous tumor growth [6]: effective as monotherapies

Compound: CC12CC3CC(C)(C1)CC(N)(C3)C2 [memantine, reference compound]
- survival [4]: did not affect survival
- reducing viability and tumorsphere growth [5]: most potent
